Structures are written as SMILES.

What all share (type): functional
In one experiment the test system is SK-OV-3. The experiment can be described thus: Growth inhibition of human SKOV3 cells assessed as cell growth at 0.01 uM incubated for 48 hrs by sulforhodamine B assay relative to control. Particulars: SK-OV-3, 48 h, read-out: Activity. A general note: Sulforhodamine B stains cellular protein and so reports cell mass.
The test system of a further experiment is UACC-62. The experiment can be described thus: Growth inhibition of human UACC62 cells assessed as cell growth at 10 uM incubated for 48 hrs by sulforhodamine B assay relative to control. The settings on record: UACC-62, 48 h, read-out: Activity.
In the next experiment the test system is 786-0. Put plainly: Growth inhibition of human 786-0 cells assessed as cell growth at 10 uM incubated for 48 hrs by sulforhodamine B assay relative to control. The settings on record: 786-0, 48 h, read-out: Activity.
A further experiment deals with SF-268. Put plainly: Growth inhibition of human SF268 cells assessed as cell growth at 0.1 uM incubated for 48 hrs by sulforhodamine B assay relative to control. The settings on record: SF-268, 48 h, read-out: Activity.
Another experiment deals with NCI/ADR-RES. Put plainly: Growth inhibition of human NCI/ADR-RES cells assessed as cell growth at 1 uM incubated for 48 hrs by sulforhodamine B assay relative to control. Particulars: read-out: Activity.
The test system of the next experiment is MCF7. The experiment can be described thus: Growth inhibition of human MCF7 cells assessed as cell growth at 1 uM incubated for 48 hrs by sulforhodamine B assay relative to control. Particulars: MCF7, 48 h, read-out: Activity.
The next experiment deals with SF-539. The experiment can be described thus: Growth inhibition of human SF539 cells assessed as cell growth at 10 uM incubated for 48 hrs by sulforhodamine B assay relative to control. Particulars: SF-539, 48 h, read-out: Activity.
For experiment [1], the system named is HT-29. Put plainly: Growth inhibition of human HT-29 cells assessed as cell growth at 100 uM incubated for 48 hrs by sulforhodamine B assay relative to control. Particulars: HT-29, 48 h, read-out: Activity.
In experiment [2] the test system is IGROV-1. The experiment can be described thus: Growth inhibition of human IGROV1 cells assessed as cell growth at 0.1 uM incubated for 48 hrs by sulforhodamine B assay relative to control. Particulars: IGROV-1, 48 h, read-out: Activity.
The next experiment deals with EKVX. Put plainly: Growth inhibition of human EKVX cells assessed as cell growth at 0.1 uM incubated for 48 hrs by sulforhodamine B assay relative to control. The settings on record: read-out: Activity.
Experiment [3] has as its system IGROV-1. Put plainly: Growth inhibition of human IGROV1 cells assessed as cell growth at 0.01 uM incubated for 48 hrs by sulforhodamine B assay relative to control. Particulars: IGROV-1, 48 h, read-out: Activity.
A further experiment relates to BT-549. Put plainly: Growth inhibition of human BT549 cells assessed as cell growth at 100 uM incubated for 48 hrs by sulforhodamine B assay relative to control. Particulars: BT-549, 48 h, read-out: Activity.
Experiment [4] concerns SNB-75. The experiment can be described thus: Growth inhibition of human SNB75 cells assessed as cell growth at 0.1 uM incubated for 48 hrs by sulforhodamine B assay relative to control. The settings on record: SNB-75, 48 h, read-out: Activity.
Experiment [5] deals with PC-3. Put plainly: Growth inhibition of human PC3 cells assessed as cell growth at 10 uM incubated for 48 hrs by sulforhodamine B assay relative to control. Particulars: PC-3, 48 h, read-out: Activity.
For experiment [6], the system named is SNB-75. The experiment can be described thus: Growth inhibition of human SNB75 cells assessed as cell growth at 1 uM incubated for 48 hrs by sulforhodamine B assay relative to control. Particulars: SNB-75, 48 h, read-out: Activity.
Experiment [7] relates to CCRF-CEM. The experiment can be described thus: Growth inhibition of human CCRF-CEM cells assessed as cell growth at 0.1 uM incubated for 48 hrs by sulforhodamine B assay relative to control. The settings on record: read-out: Activity.
The subject of a further experiment is DU-145. The experiment can be described thus: Growth inhibition of human DU145 cells assessed as cell growth at 0.03 uM incubated for 48 hrs by sulforhodamine B assay relative to control. The settings on record: DU-145, 48 h, read-out: Activity.
For experiment [8], the system named is IGROV-1. Put plainly: Growth inhibition of human IGROV1 cells assessed as cell growth at 30 uM incubated for 48 hrs by sulforhodamine B assay relative to control. Particulars: IGROV-1, 48 h, read-out: Activity.
In experiment [9] the test system is HT-29. The experiment can be described thus: Growth inhibition of human HT-29 cells assessed as cell growth at 0.003 uM incubated for 48 hrs by sulforhodamine B assay relative to control. The settings on record: HT-29, 48 h, read-out: Activity.
Experiment [10] relates to PC-3. The experiment can be described thus: Growth inhibition of human PC3 cells assessed as cell growth at 3 uM incubated for 48 hrs by sulforhodamine B assay relative to control. The settings on record: PC-3, 48 h, read-out: Activity.
Experiment [11] deals with CCRF-CEM. Put plainly: Growth inhibition of human CCRF-CEM cells assessed as cell growth at 3 uM incubated for 48 hrs by sulforhodamine B assay relative to control. Particulars: read-out: Activity.
Experiment [12] has as its system SF-295. Put plainly: Growth inhibition of human SF295 cells assessed as cell growth at 0.003 uM incubated for 48 hrs by sulforhodamine B assay relative to control. Particulars: SF-295, 48 h, read-out: Activity.
A further experiment relates to MDA-MB-435. The experiment can be described thus: Growth inhibition of human MDA-MB-435 cells assessed as cell growth at 3 uM incubated for 48 hrs by sulforhodamine B assay relative to control. The settings on record: MDA-MB-435, 48 h, read-out: Activity.
For the next experiment, the system named is HOP-92. Put plainly: Growth inhibition of human HOP92 cells assessed as cell growth at 0.03 uM incubated for 48 hrs by sulforhodamine B assay relative to control. Particulars: HOP-92, 48 h, read-out: Activity.
The next experiment has as its system NCI-H522. Put plainly: Growth inhibition of human NCI-H522 cells assessed as cell growth at 0.3 uM incubated for 48 hrs by sulforhodamine B assay relative to control. Particulars: NCI-H522, 48 h, read-out: Activity.
Another experiment has as its system NCI-H23. The experiment can be described thus: Growth inhibition of human NCI-H23 cells assessed as cell growth at 3 uM incubated for 48 hrs by sulforhodamine B assay relative to control. Particulars: NCI-H23, 48 h, read-out: Activity.
In experiment [13] the test system is SF-295. The experiment can be described thus: Growth inhibition of human SF295 cells assessed as cell growth at 3 uM incubated for 48 hrs by sulforhodamine B assay relative to control. The settings on record: SF-295, 48 h, read-out: Activity.
The subject of another experiment is Hs-578T. The experiment can be described thus: Growth inhibition of human Hs 578T cells assessed as cell growth at 30 uM incubated for 48 hrs by sulforhodamine B assay relative to control. The settings on record: read-out: Activity.
The test system of experiment [14] is SNB-75. Put plainly: Growth inhibition of human SNB75 cells assessed as cell growth at 0.003 uM incubated for 48 hrs by sulforhodamine B assay relative to control. Particulars: SNB-75, 48 h, read-out: Activity.
The subject of the next experiment is HCT-116. The experiment can be described thus: Growth inhibition of human HCT116 cells assessed as cell growth at 0.3 uM incubated for 48 hrs by sulforhodamine B assay relative to control. The settings on record: HCT-116, 48 h, read-out: Activity.
A further experiment has as its system A498. The experiment can be described thus: Growth inhibition of human A498 cells assessed as cell growth at 30 uM incubated for 48 hrs by sulforhodamine B assay relative to control. Particulars: A498, 48 h, read-out: Activity.
A further experiment has as its system SW-620. The experiment can be described thus: Growth inhibition of human SW620 cells assessed as cell growth at 3 uM incubated for 48 hrs by sulforhodamine B assay relative to control. The settings on record: SW-620, 48 h, read-out: Activity.
For the next experiment, the system named is HOP-62. Put plainly: Growth inhibition of human HOP62 cells assessed as cell growth at 0.003 uM incubated for 48 hrs by sulforhodamine B assay relative to control. Particulars: HOP-62, 48 h, read-out: Activity.
In a further experiment the test system is MDA-MB-231. The experiment can be described thus: Growth inhibition of human MDA-MB-231 cells assessed as cell growth at 3 uM incubated for 48 hrs by sulforhodamine B assay relative to control. The settings on record: MDA-MB-231, 48 h, read-out: Activity.
For experiment [15], the system named is IGROV-1. The experiment can be described thus: Growth inhibition of human IGROV1 cells assessed as cell growth at 0.003 uM incubated for 48 hrs by sulforhodamine B assay relative to control. The settings on record: IGROV-1, 48 h, read-out: Activity.

For the compound `COc1cc2cc(Oc3ccc(NC(=O)Nc4ccc(Cl)c(Cl)c4)cc3)c(C)nc2cc1OC`, the growth at 0.01 µM with SK-OV-3 was 103%; in the experiment with IGROV-1 [3], 110%. In addition, the growth at 10 µM in the experiment with UACC-62 was 25%; with 786-0, 22%; in the experiment on SF-539 it was 29%; in the experiment with PC-3 [5], -28%. The growth at 0.1 µM worked out at 109% with SF-268; 112% in the experiment with IGROV-1 [2]; 93% in the experiment on EKVX; 75% in the experiment with SNB-75 [4]; 104% in the experiment on CCRF-CEM [7]. Also, the values for the growth at 1 µM in the experiment on NCI/ADR-RES, in the experiment on MCF7 and in the experiment with SNB-75 [6] were 76%, 86% and 83%, respectively. Besides, the growth at 100 µM in the experiment with HT-29 [1] is -100%; in the experiment on BT-549 it was -72%.

For the compound `COc1cc2cc(Oc3ccc(NC(=O)Nc4ccc(Cl)c(C(F)(F)F)c4)cc3)c(C)nc2cc1OC`, the growth at 0.03 µM in the experiment with DU-145 was 96%; in the experiment on HOP-92, 89%. The values for the growth at 30 µM in the experiment with IGROV-1 [8], with Hs-578T and in the experiment with A498 were -42%, -53% and -98%, respectively. The growth at 0.003 µM in the experiment on HT-29 [9] turned out to be 97%; in the experiment with SF-295 [12], 90%; with SNB-75 [14], 90%; in the experiment with HOP-62, 99%; in the experiment with IGROV-1 [15], 107%. In addition, the growth at 3 µM in the experiment on PC-3 [10] is -3%; with CCRF-CEM [11], -2%; in the experiment with MDA-MB-435 it was 9%; in the experiment with NCI-H23 it was 5%; with SF-295 [13], -5%; in the experiment with SW-620, 15%. Besides, the growth at 3 µM in the experiment with MDA-MB-231 was -29%. In addition, the growth at 0.3 µM with NCI-H522 amounted to 85%; in the experiment with HCT-116 it was 91%.

Turning to `COc1cc2cc(Oc3ccc(NC(=O)Nc4cc(C(F)(F)F)cc(C(F)(F)F)c4)cc3)c(C)nc2cc1OC`, the growth at 0.01 µM in the experiment with SK-OV-3 worked out at 91%; in the experiment with IGROV-1 [3] it was 96%. Moreover, the growth at 10 µM in the experiment on UACC-62 is -74%; in the experiment on 786-0 it was -90%; with SF-539, -72%; in the experiment with PC-3 [5], -41%. The growth at 0.1 µM in the experiment with SF-268 was determined as 92%; in the experiment on IGROV-1 [2] it was 95%; with EKVX, 89%; in the experiment on SNB-75 [4] it was 74%; in the experiment with CCRF-CEM [7], 97%. Moreover, the growth at 1 µM in the experiment on NCI/ADR-RES is 62%; in the experiment on MCF7, 35%; in the experiment with SNB-75 [6] it was 75%. The growth at 100 µM in the experiment on HT-29 [1] was -90%; in the experiment on BT-549, -61%.

For `Cc1nc2cc(O)c(O)cc2cc1Oc1ccc(NC(=O)Nc2ccc(Cl)c(Cl)c2)cc1`, the growth at 0.03 µM in the experiment on DU-145 came to 111%; in the experiment on HOP-92, 80%. Moreover, the growth at 30 µM with IGROV-1 [8] is 17%; in the experiment with Hs-578T, 16%; with A498, 75%. Besides, the growth at 0.003 µM came out at 103% in the experiment with HT-29 [9]; 93% in the experiment with SF-295 [12]; 80% with SNB-75 [14]; 108% with HOP-62; 104% with IGROV-1 [15]. Further, the growth at 3 µM with PC-3 [10] amounted to 56%; in the experiment on CCRF-CEM [11], 76%; in the experiment on MDA-MB-435 it was 71%; in the experiment with NCI-H23 it was 87%; in the experiment on SF-295 [13], 98%; in the experiment on SW-620 it was 57%. Besides, in the experiment with MDA-MB-231, the growth at 3 µM turned out to be 41%. Further, the growth at 0.3 µM with NCI-H522 turned out to be 93%; in the experiment with HCT-116 it was 90%.

For the origin of these results see ChEMBL document CHEMBL3994622, “Design and synthesis of new RAF kinase-inhibiting antiproliferative quinoline derivatives. Part 2: Diarylurea derivatives” (Eur J Med Chem, 2017).
